The values below come from ChEMBL document CHEMBL3046248, “Synthesis and Fungicidal Activities of 2-Alkoxyiminoacetamides with a 4, 5-Dihydroisoxazole Ring” (1998).

For the first assay, the system named is Pseudoperonospora cubensis. The experiment in a line: Fungicidal activity against Pseudoperonospora cubensis in cucumber plant assessed as cucumber downy mildew disease control at 125 ppm at 22 +/- 2 degC, 98% RH measured after 10 days. It counts as functional.
For the compound `CCO/N=C(\C#N)C(=O)NC1=NOC(C)C1` (stereo not given), the Activity is listed as 70%. Still for that read-out and setting: as for `CO/N=C(\C#N)C(=O)NCC#N`, the figure is 70%; as for `CC(C)O/N=C(\C#N)C(=O)NCC1=NOC(C)C1` (stereo not given), 70%; as for `CC(C)O/N=C(\C#N)C(=O)NC1=NOC(C)C1` (stereo not given), 70%. Still for that read-out and setting: to `CO/N=C(\C#N)C(=O)NC1=NOC(C(C)(C)C)C1` (stereo not given) belongs 70%. On the same count and under the same terms, as for `CO/N=C(\C(=N)SC)C(=O)NC1=NOC(C)(C)C1`, the figure is 70%. `CO/N=C(\C#N)C(=O)NCC1=NOC(c2ccccc2)C1` (stereo not given): the Activity is recorded as 70%.

The subject of a further assay is Pseudoperonospora cubensis. The assay is described as follows: Fungicidal activity against Pseudoperonospora cubensis in cucumber plant assessed as cucumber downy mildew disease control at 7.8 ppm at 22 +/- 2 degC, 98% RH measured after 10 days. It counts as functional.
For the compound `CO/N=C(\C#N)C(=O)NCC1=NOC(C)(C)C1`, the Activity is 70%. Turning to `CO/N=C(\C#N)C(=O)NCC1=NOC(C)C1` (stereo not given), the Activity amounted to 70%. Take `CO/N=C(\C#N)C(=O)NC1=NOC(C)(C)C1`: the Activity is on record as 70%.

A further assay relates to Pseudoperonospora cubensis. The assay is described as follows: Fungicidal activity against Pseudoperonospora cubensis in cucumber plant assessed as cucumber downy mildew disease control at 31.3 ppm at 22 +/- 2 degC, 98% RH measured after 10 days. It counts as functional.
As for `CO/N=C(\C#N)C(=O)NCC1=NOC(C(C)(C)C)C1` (stereo not given), the Activity is 70%. Regarding `CCO/N=C(C(=O)NC1=NOC(C)(C)C1)\C(N)=N\O`, the Activity is on record as 70%. For the compound `CO/N=C(C(=O)NC1=NOC(C)C1)\C(N)=N\O` (stereo not given), the Activity amounted to 70%. With `CCO/N=C(\C#N)C(=O)NCC1=NOC(C)C1` (stereo not given), the Activity is given as 70%. For `CCO/N=C(\C#N)C(=O)NC1=NOC(C)C1` (stereo not given), the Activity amounted to 70%. On to `CO/N=C(\C#N)C(=O)NCC#N`, for which the Activity turned out to be 70%.

As for `CC1CC(CNC(=O)/C(C#N)=N/OCc2ccccc2)=NO1` (stereo not given), the Activity was determined as 70%. Same read-out and setting: to `CC(C)O/N=C(\C#N)C(=O)NC1=NOC(C)C1` (stereo not given) belongs 70%; to `CO/N=C(\C#N)C(=O)NCc1cc(C)on1`, 70%. As to `CO/N=C(C(=O)NC1=NOC(C)(C)C1)\C(N)=N\O`, the Activity is recorded as 70%. Consider `CCC1(C)CC(NC(=O)C(=N/OC)/C(N)=N/O)=NO1` (stereo not given), for which the Activity was found to be 70%.

Consider `CO/N=C(\C#N)C(=O)NC1=NOC(C)C1` (stereo not given), for which the Activity is on record as 70%.

Take `CO/N=C(\C#N)C(=O)NCc1cccnc1`: the Activity came out at 70%.

A further assay concerns Pseudoperonospora cubensis. The experiment in a line: Fungicidal activity against Pseudoperonospora cubensis in cucumber plant assessed as cucumber downy mildew disease control at 500 ppm at 22 +/- 2 degC, 98% RH measured after 10 days. It counts as functional.
As for `C=CCNC(=O)/C(C#N)=N/OC`, the Activity is less than 70%. On to `CC1CC(NC(=O)/C(C#N)=N/OCc2ccccc2)=NO1` (stereo not given), for which the Activity is reported as less than 70%. Turning to `CO/N=C(\C(N)=O)C(=O)NC1=NOC(C)(C)C1`, the Activity is given as less than 70%. On the same count and under the same terms, as for `CC1(C)CC(NC(=O)C(=N/OCc2ccccc2)/C(N)=N/O)=NO1`, the figure is less than 70%; as for `C#CCNC(=O)/C(C#N)=N/OC`, less than 70%. As for `N#C/C(=N\OCc1ccccc1)C(=O)NCCCl`, the Activity was less than 70%. Take `CO/N=C(\C#N)C(=O)NCc1ccsc1`: the Activity is recorded as less than 70%. Still for that read-out and setting: to `CO/N=C(/C(=O)NC1=NOC(C)(C)C1)C(=O)OC` belongs less than 70%; to `CO/N=C(/C(=O)NC1=NOC(C)(C)C1)C(=O)N(C)C`, less than 70%; to `CO/N=C(\C(=N)OC)C(=O)NC1=NOC(C)(C)C1`, less than 70%. Consider `CO/N=C(\C#N)C(=O)NC1=NOC(c2ccccc2)C1` (stereo not given), for which the Activity is less than 70%. Regarding `CNC(=O)/C(=N\OC)C(=O)NC1=NOC(C)(C)C1`, the Activity is less than 70%.
